Columns and labels:
methanogens in soils = experiment: Methane concentration in headspace of soils at fresh water conditions treated with Co-M structural analogues; conditions: for Methane concentration in headspace: 20 mg/kg in soils at fresh water conditions, cultivation for 50 days; for methane emission amount reduced compared to the control: 20 mg/kg in soils, 50 days, vs soils without sample treatment
Source text: (§1) It is known that coenzyme M (hereinbelow, “Co-M”), which is produced during the intercellular reactions of methanogens, is an inhibitor for specifically inhibiting the methanogenic activity of methanogens. Accordingly, ethephon was selected in the present invention as a structural analogue of Co-M. Specifically, CES (2-chloroethane sulfonate), BES (2-bromoethane sulfonate), and MES (2-mercaptoethane sulfonate) that are known as a structural analogue of Co-M, and ethephon (IUPAC name: 2-chloroethyl phosphonic acid) selected as a structural analogue of Co-M in the present invention were applied, each at the same concentration (20 mg/kg), to soils at fresh water conditions. Then, along with cultivation for 50 days, methane concentration in headspace and activity of the methanogens in soils were measured.
(§2) First, methane concentration in headspace was measured and emission amount of methane gas was analyzed.

[1] = test system: methanogens in soils (mcrA, methyl coenzyme-M reductase gene); experiment: Activity of methanogens in soils (mcrA gene copy number); conditions: for Activity of methanogens (mcrA gene copy no./g soil): 20 mg/kg in soils at fresh water conditions, cultivation for 50 days; for mcrA gene copy number reduced compared to the control: 20 mg/kg in soils, 50 days, vs control
Source text: as §1, §2

rice = experiment: Yield property of rice after fertilizer application; format: in vivo, Oryza sativa
Method: (§3) Fertilizer composition prepared by mixing ethephon, cellulose acetate, and gypsum at various mixing ratios was applied in an amount of 2 ton/ha to soils of flooded rice paddies before rice transplanting. Then, emission amount of methane during the subsequent process of cultivating rice, effect of inhibiting methane emission, and yield property of rice were analyzed.

[2] = test system: methanogens in soils of flooded rice paddies; experiment: Methane emission from soils of flooded rice paddies during rice cultivation after fertilizer application; format: in vivo; conditions: for Methane emission: applied before rice transplanting
Method: To acetone in which ethephon has been dissolved at various concentrations based on the blending ratio described in the following Table 4, cellulose acetate was added and dissolved therein. After mixing the resultant with gypsum and drying the mixture till to have evaporation of acetone, the mixture was crushed to have particle size of not more than 2 mm. Accordingly, fertilizer capable of reducing methane emission amount by delaying the ethephon degradation in soils was prepared. Since acetone is highly volatile so that it can completely evaporate during the process of mixing and drying ethephon, cellulose acetate, and gypsum, it is used in minimum amount depending on the total amount of mixture. Meanwhile, the ethephon treatment amount of 2 kg/ha, 6 kg/ha, and 10 kg/ha means that ethephon is applied at concentration of 1 mg/kg, 3 mg/kg, and 5 mg/kg (ppm), respectively, in soils.
as §3

[3] = ethephon 2 kg/ha with gypsum 1940 kg/ha and CA 60 kg/ha
[4] = ethephon 6 kg/ha with gypsum 1940 kg/ha and CA 60 kg/ha
[5] = ethephon 10 kg/ha with gypsum 1940 kg/ha and CA 60 kg/ha

For `O=S(=O)([O-])CCBr.[Na+]` [BES, 2-bromoethane sulfonate], the “Methane concentration in headspace” value (methanogens in soils) was 4.4 mg/L, the “methane emission amount reduced compared to the control” value (“methane emission amount reduced” below) (methanogens in soils) was roughly 56% and the “Activity of methanogens (mcrA gene copy no./g soil)” value [1] was 1.65 × 10^6 mcrA gene copy no./g soil. For the same compound, the “mcrA gene copy number reduced compared to the control” value (shortened to “mcrA gene copy number reduced”) [1] was roughly 45%.

`O=S(=O)([O-])CCCl.[Na+]` [CES, 2-chloroethane sulfonate] was tested, and the “Methane concentration in headspace” value (methanogens in soils) was 5.1 mg/L, the “methane emission amount reduced” value (methanogens in soils) was “about 48%” and the “Activity of methanogens (mcrA gene copy no./g soil)” value [1] was 1.86 × 10^6 mcrA gene copy no./g soil. The “mcrA gene copy number reduced” value [1] was “about 39%”.

For `O=P(O)(O)CCCl` [Ethephon, 2-chloroethyl phosphonic acid], the “Methane concentration in headspace” value (methanogens in soils) was 4.4 mg/L, the “methane emission amount reduced” value (methanogens in soils) was roughly 56% and the Grain yield (rice; [3]) was 6331 kg/ha. The Straw yield (rice; [3]) was 6964 kg/ha, the Yield index (rice; [3]) was 100 and the “change in rice yield in relation to the application amount of ethephon” value (rice; ethephon 2 to 10 kg/ha in fertilizer) was “no significant change in rice yield”. For the same compound, the Grain yield (rice; [4]) was 6298 kg/ha, the Straw yield (rice; [4]) was 6928 kg/ha and the Yield index (rice; [4]) was 99.6. The Grain yield (rice; [5]) was 6315 kg/ha, the Straw yield (rice; [5]) was 6946 kg/ha and the Yield index (rice; [5]) was 99.9. For the same compound, the “Activity of methanogens (mcrA gene copy no./g soil)” value [1] was 1.35 × 10^6 mcrA gene copy no./g soil, the “mcrA gene copy number reduced” value [1] was roughly 55% and the “Effect of inhibiting methanogenesis” value [2, 3] was 50.5%. The Methane emission [2, 3] was 36.9 kg CH4 ha^−1, the “Effect of inhibiting methanogenesis” value [2, 4] was 78.6% and the Methane emission [2, 4] was 15.9 kg CH4 ha^−1. For the same compound, the “Effect of inhibiting methanogenesis” value [2, 5] was 98.1%, the Methane emission [2, 5] was 1.4 kg CH4 ha^−1 and the “Effect of inhibiting methanogenesis” value ([2]; ethephon 10 kg/ha with gypsum 1940 kg/ha and CA 60 kg/ha, listed as ethephon) was “about 98.1%”. The “methane gas emission amount from flooded rice paddies” value ([2]; fertilizer containing ethephon vs fertilizer not containing any ethephon) was “significantly lower”.
